Measured values taken from patent US6451853B1, “Small molecules that elicit a polarized Th1 response and for modulation of cellular immunity” (Dovetail Technologies, Inc, priority 1998, dated 2002).
Several values for one entry are separate records, joined by “and”; a condition that tells them apart may be missing. Equal entries are not always repeated.

Experiments:
[1] = system: surface TNF alpha on human monocytes; assay: Surface TNF alpha expression on monocytes by FACS (CD14+ cells); type: cell-based; settings: all drugs 20 mM
Source text: The effect of NAC and BT, alone or in combination, on surface TNF alpha expression by stimulated or unstimulated monocytes (prepared from PBM) was examined. […] Table 6. While only a small proportion of T cells from each donor were responsive to the combination NAC/BT, the effect on surface TNF alpha expression in monocytes was significant.

[2] = system: surface TNF alpha on human T cells; assay: Surface TNF alpha expression on T cells by FACS (gating on CD3+ cells); settings: for surface TNF alpha, overall MFI: 20 mM NAC without or with 20 mM BT; for surface TNF alpha expression, Time Course: each drug 20 mM; for TNF alpha in T cells, % Total / TNF alpha in T cells, MFI: marker All
[3] = system: soluble TNF alpha release from human lymphocytes; assay: Soluble TNF alpha in supernatants by ELISA; settings: Media (unstimulated); drugs 20 mM; ELISA standard curve in pg/mL, unit not given
human PBMCs [4] = assay: PBMC proliferation by 3H-thymidine incorporation; type: cell-based
Method: Treatment with 0.14 mM Taurox-SB increased proliferation of human PBMCs with and without PHA, as detected by incorporation of 3H-thymidine (Table 18).
Human PBMCs are obtained through collection of peripheral blood and isolation over Ficoll 1077. The cells are counted and 5×10^5 cells are plated in triplicate in 96 well plates in 100 μl of media (RPMI 1640, 20% FBS) containing specified conditions. These cells are then allowed to incubate for 48 hours. After this incubation 1 μCi of ^3H-Thymidine is added in a […] volume. The plates are incubated an additional 24 hours and harvested on a Tomtec plate harvester and the filtermat read in a scintillation counter. Many studies have been performed using the drugs in combination with PHA (T cell stimulant (mitogen)) obtained from Sigma.

MOLT-4 T cell line = assay: CD69 expression by flow cytometry, MOLT-4; type: cell-based
Method: (§1) CD69 Expression. CD69 expression was assessed by flow cytometry as described previously. […] CD69 is one of the earliest stimulation markers expressed on T cells upon activation (Testi et al., 1994). The cross-linking of this marker is believed to generate extracellular Ca++ influxes and activate phospholipase A2, and thus it is believed to be an integral part of the activation process (Testi et al., 1994).

PBMC = assay: CD69 expression by flow cytometry, PBMC T cells; type: cell-based; settings: for CD69 Expression, MFI of 10,000 events: PBMC
Method: as §1

human PBMCs [5] = assay: Cell cycle analysis; type: cell-based; settings: 18 and 24 hours of exposure
T cells = assay: Ca++ mobilization kinetics with fluo-3AM; type: cell-based; settings: final concentrations 0.14 mM to 1.4 mM; eight minute time period; data not shown
Method: The kinetics of Ca++ mobilization was observed using the dye fluo-3AM which is a membrane permeable Ca++ indicator which becomes increasingly fluorescent upon Ca++ binding. A baseline reading indicates the resting state of Ca++, followed by injection of Taurox-SB to yield final concentrations of 0.14 mM to 1.4 mM. […] PHA was added as a positive control for the elicitation of a Ca++ response (Greimers et al., 1996). […] (Data not shown.) The role of the second messenger response could be varied, as many proteins are activated by Ca++-regulated intracellular pathways. Second messengers may serve to enhance production of cytokines by immune cells.

[6] = system: surface TNF alpha on human monocytes; assay: Surface TNF alpha expression on monocytes by FACS (CD14+ cells); type: cell-based; settings: for Monocyte TNF alpha surface expression, % Positive: fluorescence greater than isotype control peak
[7] = system: Cytokine mRNA from T cells (PBMC); assay: RNase protection assay of cytokine mRNA in PBMC (T cells), with or without PMA/ionomycin; settings: 6 hours, unit not given
Cloudman S-91 cells = assay: CTL lysis of Cloudman S-91 targets (CMFDA leakage); type: cell-based, DBA/2 mouse; settings: CTLs generated using 0.14 M Taurox-SB in addition to IL-6/IL-12; 10:1 effector:target, 16 hours
Method: The analysis was extended to include killing of the Cloudman S-91 targets used for the CTL generation. Cloudman S-91 cells (5×104) were loaded with chloromethylfluorescein diacetate (CMFDA) and incubated for 16 hours with CTLs generated from DBA/2 splenocytes at a 10:1 effector:target ratio. Lysis was detected by leakage of the CMFDA.

HUT-78 T cell line = assay: CD69 expression by flow cytometry, HUT-78; type: cell-based
Method: as §1

[8] = air and aqueous solutions; cited from earlier work
[9] = Taurox-SB 14 nM, no stimulation
[10] = Taurox-SB 14 nM, with stimulation
[11] = Taurox-SB 1.4 uM, no stimulation
[12] = Taurox-SB 1.4 uM, with stimulation
[13] = Taurox-SB 1.4 mM, no stimulation
[14] = Taurox-SB 1.4 mM, with stimulation
[15] = With PMA + Ionomycin stimulation, 1.4 mM TSB, 16 hours
[16] = With PMA + Ionomycin stimulation, .14 mM TSB, 16 hours
[17] = Without stimulation, 1.4 mM TSB, 16 hours
[18] = Without stimulation, .14 mM TSB, 16 hours

CC(=O)N[C@@H](CS)C(=O)O [NAC, N-acetyl-L-cysteine, reference compound]
surface TNF alpha expression ([1]; stimulated monocytes): relative ineffectiveness
surface TNF alpha expression ([1]; unstimulated monocytes): not upregulated
surface TNF alpha, overall MFI ([2]; NAC + Stimulation (1 micromolar Ionomycin, 10 ng/ml PMA), individual donors): 25.32 and 31.12 and 95.45 and 53.48 and 17.39 and 12.59
surface TNF alpha, overall MFI ([2]; NAC + Stimulation with 1 ng PMA): 11.31 and 12.76
surface TNF alpha expression, Time Course ([2]; Pma/iono, 6 hours): 82
surface TNF alpha expression, Time Course ([2]; Pma/iono, 16 hours): 93
surface TNF alpha expression, Time Course ([2]; Pma/iono, 24 hours): 101
surface TNF alpha expression, Time Course ([2]; Pma/iono, 42 hours): 113
surface TNF alpha expression, Time Course ([2]; Pma/iono, 68 hours): 80
surface TNF alpha, overall MFI ([2]; no stimulation, individual donors): 24.7 and 6.96 and 17.49 and 6.34 and 6.68
surface TNF alpha expression, Time Course ([2]; unstimulated, 6 hours): 20
surface TNF alpha expression, Time Course ([2]; unstimulated, 16 hours): 33
surface TNF alpha expression, Time Course ([2]; unstimulated, 24 hours): 39
surface TNF alpha expression, Time Course ([2]; unstimulated, 42 hours): 56
surface TNF alpha expression, Time Course ([2]; unstimulated, 68 hours): 47
Soluble TNF [3]: 15

O=C(CCNC(=O)OCc1ccccc1)NCCS(=O)(=O)O [Taurox-SB, carbobenzoxy beta-alanyl taurine]
PBMC Proliferation, mean cpm ± SD (human PBMCs [4]; 0.14 mM, No PHA): 2964 ± 684 cpm
PBMC Proliferation, mean cpm ± SD (human PBMCs [4]; 0.14 mM, PHA 10 μg/ml): 5538 ± 597 cpm
viability (human PBMCs [4]; 1.4 mM): slight reduction in viability
PBMC Proliferation, mean cpm ± SD (human PBMCs [4]; .014 mM, No PHA): 1346 ± 70 cpm
PBMC Proliferation, mean cpm ± SD (human PBMCs [4]; .014 mM, PHA 10 μg/ml): 4794 ± 652 cpm
CD69 Expression, MFI of 10,000 events (MOLT-4 T cell line; MOLT-4 + PHA, 1.4 mM): 547
CD69 Expression, MFI of 10,000 events (MOLT-4 T cell line; MOLT-4, 1.4 mM): 208
CD69 Expression, MFI of 10,000 events (PBMC; 1.4 mM): 7
CD69 Expression, MFI of 10,000 events (PBMC; 14 mM): 11
CD69 expression (PBMC; T cells, concentrations less than 1.4 mM): without effect
cell cycle distribution (human PBMCs [5]): increase in the proportion of cells in G2/M
Ca++ mobilization (T cells): rising or sustained
Monocyte TNF alpha surface expression, % Positive ([6]; PMA/iono + Taurox-SB 1.4 mM): 59% and 53% and 57% and 36%
Monocyte TNF alpha surface expression, % Positive ([6]; Taurox-SB 1.4 mM, no PMA/iono): 9% and 3%
Monocyte TNF alpha surface expression, MFI ([6]; Taurox-SB 1.4 mM, no PMA/iono, separate experiments): 19.91 and 16.68 and 10.95
Effect on GAPDH message [7, 9]: −20.94
Effect on IFNg message [7, 9]: 21.53
Effect on Ltb message [7, 9]: 29.83
Effect on TGFb1 message [7, 9]: 17.51
Effect on TNFa message [7, 9]: 2.10
Effect on TNFb message [7, 9]: 62.96
Effect on GAPDH message [7, 10]: −8.10
Effect on IFNg message [7, 10]: −32.73
Effect on Ltb message [7, 10]: 12.29
Effect on TGFb1 message [7, 10]: −10.25
Effect on TNFa message [7, 10]: −15.96
Effect on TNFb message [7, 10]: 22.72
Effect on GAPDH message [7, 11]: −8.16
Effect on IFNg message [7, 11]: 16.76
Effect on Ltb message [7, 11]: 21.09
Effect on TGFb1 message [7, 11]: 29.61
Effect on TNFa message [7, 11]: 21.27
Effect on TNFb message [7, 11]: 311.16
Effect on GAPDH message [7, 12]: 4.88
Effect on IFNg message [7, 12]: −9.85
Effect on Ltb message [7, 12]: 2.92
Effect on TGFb1 message [7, 12]: −0.09
Effect on TNFa message [7, 12]: 48.67
Effect on TNFb message [7, 12]: 4.18
Effect on GAPDH message [7, 13]: 4.96 _
Effect on IFNg message [7, 13]: 388.08
Effect on Ltb message [7, 13]: 85.61
Effect on TGFb1 message [7, 13]: 36.89
Effect on TNFa message [7, 13]: 461.93
Effect on TNFb message [7, 13]: 373.82
Effect on GAPDH message [7, 14]: −38.75
Effect on IFNg message [7, 14]: −64.90
Effect on Ltb message [7, 14]: 234.28
Effect on TGFb1 message [7, 14]: −25.88
Effect on TNFa message [7, 14]: −100.00
Effect on TNFb message [7, 14]: 20.95
lysis of Cloudman S-91 targets (Cloudman S-91 cells): 73%
TNF alpha in T cells, % Total [2, 15]: 88.89%
TNF alpha in T cells, MFI [2, 15]: 85.04
TNF alpha in T cells, % Total [2, 16]: 85.64%
TNF alpha in T cells, MFI [2, 16]: 169.68
TNF alpha in T cells, % Total [2, 17]: 72.09%
TNF alpha in T cells, MFI [2, 17]: 25.34
TNF alpha in T cells, % Total [2, 18]: 78.07%
TNF alpha in T cells, MFI [2, 18]: 20.18
CD69 Expression, MFI of 10,000 events (HUT-78 T cell line; HUT-78 + PHA, 1.4 mM): 409
CD69 Expression, MFI of 10,000 events (HUT-78 T cell line; HUT-78, 1.4 mM): 278

NCCC(=O)NCCS [beta-aletheine]
stability [8]: unstable in air and aqueous solutions
